These results are taken from ChEMBL document CHEMBL5537181 (J Med Chem, 2024).

Activity calls are given as the source filed them. The rule behind the calls is not given here.

Data set [1] addresses Sodium channel protein type 10 subunit alpha (Homo sapiens) (UniProt Q9Y5Y9). In words: Inhibition of Nav1.8 (unknown origin) at 1 uM.
For data set [2], the target named is Neuronal acetylcholine receptor; alpha9/alpha10 (Homo sapiens, UniProt Q9GZZ6+Q9UGM1). Put plainly: Antagonist activity at human wild type alpha9alpha10 nAChR expressed in acetylcholine-induced Xenopus laevis oocytes assessed as inhibition of acetylcholine-induced current at 1:1 ratio of protein by two electrode voltage-clamp assay. It counts as cell-based, Oocyte. (In two-electrode clamp one electrode senses voltage and the other passes current.)

Data set [3] concerns Rattus norvegicus. In words: Analgesic activity in Chronic constriction injury rat model assessed as decrease in hyperalgesia at 250 microg/kg,IM administration and measured for 0.5 to 48 hrs. It counts as functional, organism-based. As to conditions: dose 250.0 µg/kg, time 0.5-48 hrs.
Data set [4] has as its target T1, Neuronal acetylcholine receptor; alpha3/beta2 (Homo sapiens) (UniProt P17787+P32297). Put plainly: Antagonist activity at human alpha3beta2 nAChR expressed in acetylcholine-induced Xenopus laevis oocytes assessed as inhibition of acetylcholine-induced current at 100 nM by two electrode voltage-clamp assay relative to control. It counts as cell-based. As to conditions: Oocyte.

Data set [5] has as its target T1, Neuronal acetylcholine receptor; alpha3/beta2 (Homo sapiens). In words: Antagonist activity at human alpha3beta2 nAChR expressed in acetylcholine-induced Xenopus laevis oocytes assessed as inhibition of acetylcholine-induced current at 30 nM by two electrode voltage-clamp assay. It is filed as cell-based. As to conditions: Oocyte.
Data set [6] relates to Rattus norvegicus. In words: Analgesic activity in Chronic constriction injury rat model assessed as decrease in hyperalgesia at 250 microg/kg,IM administrated every 2 hrs for 7 days. It is filed as functional, organism-based. As to conditions: dose 250.0 µg/kg, time 7.0 day.
Data set [7] is described as follows: Toxicity in rat assessed as change in behavior at 250 microg/kg,IM administrated for 14 consecutive days by conditioned place preference assay. As to conditions: in vivo, 0.25 mg/kg, dose 250 µg/kg.
Data set [8] in a line: Antagonist activity at human alpha9N152G mutant alpha10 nAChR expressed in acetylcholine-induced Xenopus laevis oocytes assessed as inhibition of acetylcholine-induced current at 1:3 ratio of protein by two electrode voltage-clamp assay. It counts as cell-based. As to conditions: Oocyte.
The target of data set [9] is Neuronal acetylcholine receptor; alpha3/beta4 (Rattus norvegicus) (UniProt P04757+P12392). Put plainly: Antagonist activity at rat alpha3beta4 nAChR expressed in acetylcholine-induced Xenopus laevis oocytes assessed as inhibition of acetylcholine-induced current at 100 nM by two electrode voltage-clamp assay relative to control. It counts as cell-based. As to conditions: Oocyte.

The target of data set [10] is T2, Voltage-dependent N-type calcium channel subunit alpha-1B (Homo sapiens, UniProt Q00975). In words: Inhibition of human Cav2.2 channel transfected in HEK293T cells co-expressed with human GABAB receptor assessed as inhibition of Cav2.2-mediated Ba2+ current at 100 nM in presence of CGP 55845 measured for 3 to 5 days by whole-cell patch clamp assay. It is filed as cell-based. As to conditions: time 3-5 day. In general terms: In patch-clamp work, channel activity is measured electrically.

For data set [11], the target named is T3, Acid-sensing ion channel 3 (Homo sapiens) (UniProt Q9UHC3).
T3 sequence (whole entry): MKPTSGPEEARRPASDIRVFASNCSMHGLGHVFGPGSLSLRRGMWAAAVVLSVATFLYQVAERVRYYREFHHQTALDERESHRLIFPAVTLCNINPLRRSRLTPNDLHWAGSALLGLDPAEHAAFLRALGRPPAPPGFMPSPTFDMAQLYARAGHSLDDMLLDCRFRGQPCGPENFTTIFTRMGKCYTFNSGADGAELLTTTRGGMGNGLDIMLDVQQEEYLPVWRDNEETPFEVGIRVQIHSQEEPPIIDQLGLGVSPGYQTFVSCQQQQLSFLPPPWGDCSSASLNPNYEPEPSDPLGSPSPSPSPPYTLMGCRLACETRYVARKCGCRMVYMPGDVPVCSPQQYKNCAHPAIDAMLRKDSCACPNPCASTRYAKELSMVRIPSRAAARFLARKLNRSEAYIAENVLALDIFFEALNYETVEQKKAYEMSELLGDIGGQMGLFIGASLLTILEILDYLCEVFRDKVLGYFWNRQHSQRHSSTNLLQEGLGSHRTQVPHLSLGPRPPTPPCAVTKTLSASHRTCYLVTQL
In words: Inhibition of ASIC3 (unknown origin) at 1 uM.

For data set [12], the target named is T2, Voltage-dependent N-type calcium channel subunit alpha-1B. Put plainly: Inhibition of human Cav2.2 channel transfected in HEK293T cells co-expressed with human GABAB receptor assessed as inhibition of Cav2.2-mediated Ba2+ current at 100 nM measured for 3 to 5 days by whole-cell patch clamp assay. It is filed as cell-based. As to conditions: time 3-5 day.

Data set [13] has as its target T4, Neuronal acetylcholine receptor; alpha9/alpha10 (Homo sapiens) (UniProt Q9UGM1+Q9GZZ6). Put plainly: Antagonist activity at human alpha9alpha10 nAChR expressed in acetylcholine-induced Xenopus laevis oocytes assessed as inhibition of acetylcholine-induced current at 30 nM at -40 mV holding potential by two electrode voltage-clamp assay. It is filed as cell-based. As to conditions: Oocyte, filed as antagonist.

Data set [14] concerns the target T5, Potassium/sodium hyperpolarization-activated cyclic nucleotide-gated channel 2 (Homo sapiens) (UniProt Q9UL51).
T5 sequence (whole entry): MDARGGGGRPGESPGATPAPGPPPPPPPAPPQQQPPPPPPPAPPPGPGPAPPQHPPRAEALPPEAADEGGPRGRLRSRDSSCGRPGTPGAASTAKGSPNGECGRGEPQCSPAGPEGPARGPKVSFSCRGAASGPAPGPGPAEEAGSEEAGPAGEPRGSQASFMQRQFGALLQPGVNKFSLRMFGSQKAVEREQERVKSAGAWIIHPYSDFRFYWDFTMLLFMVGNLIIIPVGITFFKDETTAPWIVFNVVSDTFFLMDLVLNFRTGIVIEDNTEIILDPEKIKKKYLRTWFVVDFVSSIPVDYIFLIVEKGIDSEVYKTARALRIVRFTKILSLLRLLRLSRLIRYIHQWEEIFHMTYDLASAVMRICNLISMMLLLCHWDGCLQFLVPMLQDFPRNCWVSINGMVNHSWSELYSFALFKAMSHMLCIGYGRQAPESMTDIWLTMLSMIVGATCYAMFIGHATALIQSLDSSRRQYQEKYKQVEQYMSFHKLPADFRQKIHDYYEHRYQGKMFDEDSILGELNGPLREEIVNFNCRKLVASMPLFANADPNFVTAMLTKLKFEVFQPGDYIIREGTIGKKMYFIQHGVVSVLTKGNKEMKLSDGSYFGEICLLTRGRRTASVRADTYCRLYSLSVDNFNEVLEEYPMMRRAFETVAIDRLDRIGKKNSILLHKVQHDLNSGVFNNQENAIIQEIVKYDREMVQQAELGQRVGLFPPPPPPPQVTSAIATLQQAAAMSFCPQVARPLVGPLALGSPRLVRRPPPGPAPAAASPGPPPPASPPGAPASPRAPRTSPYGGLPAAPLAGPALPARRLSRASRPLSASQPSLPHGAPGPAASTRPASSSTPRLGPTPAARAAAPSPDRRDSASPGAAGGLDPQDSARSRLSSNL
Put plainly: Inhibition of HCN2 (unknown origin) at 1 uM.

Data set [15] has as its target T4, Neuronal acetylcholine receptor; alpha9/alpha10 (Homo sapiens). In words: Antagonist activity at human wild type alpha9alpha10 nAChR expressed in acetylcholine-induced Xenopus laevis oocytes assessed as inhibition of acetylcholine-induced current at 30 nM by two electrode voltage-clamp assay relative to control. As to conditions: Oocyte, filed as antagonist. It is filed as cell-based.

Data set [16] concerns the target T2, Voltage-dependent N-type calcium channel subunit alpha-1B. Put plainly: Inhibition of human Cav2.2 channel transfected in HEK293T cells assessed as inhibition of Cav2.2-mediated Ba2+ current at 1 uM measured for 3 to 5 days by whole-cell patch clamp assay relative to control. It counts as cell-based. As to conditions: time 3-5 day.

T2 sequence (Q00975 whole entry, looked up): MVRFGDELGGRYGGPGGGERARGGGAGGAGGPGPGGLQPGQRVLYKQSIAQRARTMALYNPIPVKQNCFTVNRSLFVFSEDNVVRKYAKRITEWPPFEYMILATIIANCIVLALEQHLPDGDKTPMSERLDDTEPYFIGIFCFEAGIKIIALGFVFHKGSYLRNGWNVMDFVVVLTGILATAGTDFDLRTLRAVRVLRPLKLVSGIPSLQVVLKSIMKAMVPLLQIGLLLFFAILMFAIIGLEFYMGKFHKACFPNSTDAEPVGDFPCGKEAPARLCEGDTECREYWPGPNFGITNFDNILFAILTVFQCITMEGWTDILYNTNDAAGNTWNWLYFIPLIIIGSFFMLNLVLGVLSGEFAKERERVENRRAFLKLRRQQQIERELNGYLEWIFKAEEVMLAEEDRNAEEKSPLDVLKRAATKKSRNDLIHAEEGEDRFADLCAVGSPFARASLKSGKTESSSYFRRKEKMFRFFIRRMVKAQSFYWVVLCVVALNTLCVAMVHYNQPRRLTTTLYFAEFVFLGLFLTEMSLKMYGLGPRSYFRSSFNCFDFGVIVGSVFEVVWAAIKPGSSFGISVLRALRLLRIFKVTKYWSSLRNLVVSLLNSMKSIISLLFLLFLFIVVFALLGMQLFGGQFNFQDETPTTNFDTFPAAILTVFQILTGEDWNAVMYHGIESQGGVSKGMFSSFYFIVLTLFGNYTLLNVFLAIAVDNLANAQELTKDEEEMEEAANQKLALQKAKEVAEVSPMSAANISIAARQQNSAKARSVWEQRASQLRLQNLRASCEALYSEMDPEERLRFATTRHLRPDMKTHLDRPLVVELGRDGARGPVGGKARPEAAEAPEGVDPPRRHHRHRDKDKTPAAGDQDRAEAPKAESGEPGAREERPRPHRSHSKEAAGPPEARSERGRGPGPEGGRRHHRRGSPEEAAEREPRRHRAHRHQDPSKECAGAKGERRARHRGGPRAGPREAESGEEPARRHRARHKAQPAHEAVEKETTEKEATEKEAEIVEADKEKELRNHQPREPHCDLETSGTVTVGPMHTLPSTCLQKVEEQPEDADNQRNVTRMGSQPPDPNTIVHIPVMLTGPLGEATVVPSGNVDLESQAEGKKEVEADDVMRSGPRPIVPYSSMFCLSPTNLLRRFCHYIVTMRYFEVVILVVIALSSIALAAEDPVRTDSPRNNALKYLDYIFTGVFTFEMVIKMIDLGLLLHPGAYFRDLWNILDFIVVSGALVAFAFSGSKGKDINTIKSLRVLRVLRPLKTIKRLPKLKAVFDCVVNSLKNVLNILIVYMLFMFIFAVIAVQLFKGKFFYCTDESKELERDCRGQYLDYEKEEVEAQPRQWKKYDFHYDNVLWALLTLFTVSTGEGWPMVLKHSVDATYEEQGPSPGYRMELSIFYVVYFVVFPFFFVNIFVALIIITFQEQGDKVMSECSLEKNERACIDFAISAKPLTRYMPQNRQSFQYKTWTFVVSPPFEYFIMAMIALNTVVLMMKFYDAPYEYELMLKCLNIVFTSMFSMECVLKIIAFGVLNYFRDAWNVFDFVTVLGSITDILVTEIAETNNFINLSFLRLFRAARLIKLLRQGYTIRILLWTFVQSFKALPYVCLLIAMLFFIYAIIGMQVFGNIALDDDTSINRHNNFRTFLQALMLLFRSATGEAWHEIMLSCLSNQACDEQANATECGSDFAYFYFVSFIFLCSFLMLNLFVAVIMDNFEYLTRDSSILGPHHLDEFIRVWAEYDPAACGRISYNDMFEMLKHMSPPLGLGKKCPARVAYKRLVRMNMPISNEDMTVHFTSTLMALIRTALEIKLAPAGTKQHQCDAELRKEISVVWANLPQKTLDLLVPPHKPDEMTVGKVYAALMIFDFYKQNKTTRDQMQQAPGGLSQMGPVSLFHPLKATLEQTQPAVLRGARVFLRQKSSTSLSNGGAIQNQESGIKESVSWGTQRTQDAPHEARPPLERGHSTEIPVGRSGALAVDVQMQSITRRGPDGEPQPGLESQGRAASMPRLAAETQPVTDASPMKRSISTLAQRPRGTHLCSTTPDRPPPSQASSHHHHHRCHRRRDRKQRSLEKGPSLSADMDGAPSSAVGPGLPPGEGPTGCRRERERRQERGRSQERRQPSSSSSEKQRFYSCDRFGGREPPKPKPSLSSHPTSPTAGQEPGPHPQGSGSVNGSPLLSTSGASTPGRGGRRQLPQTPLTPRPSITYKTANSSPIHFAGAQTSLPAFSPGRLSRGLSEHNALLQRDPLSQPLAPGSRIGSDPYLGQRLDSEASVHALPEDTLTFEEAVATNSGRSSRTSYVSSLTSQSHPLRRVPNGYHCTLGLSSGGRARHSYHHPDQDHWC
Neuronal acetylcholine receptor; alpha9/alpha10, sequence (Q9UGM1 whole entry): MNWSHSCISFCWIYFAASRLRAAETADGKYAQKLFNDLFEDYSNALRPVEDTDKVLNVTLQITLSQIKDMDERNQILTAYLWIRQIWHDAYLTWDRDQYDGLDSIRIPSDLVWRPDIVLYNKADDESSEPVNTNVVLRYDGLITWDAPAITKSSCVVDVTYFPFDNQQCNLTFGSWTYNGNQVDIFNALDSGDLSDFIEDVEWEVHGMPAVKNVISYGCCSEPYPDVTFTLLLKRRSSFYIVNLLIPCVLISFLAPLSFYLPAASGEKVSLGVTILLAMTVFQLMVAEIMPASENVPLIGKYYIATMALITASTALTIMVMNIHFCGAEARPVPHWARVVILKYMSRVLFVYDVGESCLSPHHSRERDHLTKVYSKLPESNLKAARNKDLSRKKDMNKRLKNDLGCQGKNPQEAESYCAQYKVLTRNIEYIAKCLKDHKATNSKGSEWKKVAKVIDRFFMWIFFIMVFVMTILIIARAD
Neuronal acetylcholine receptor; alpha9/alpha10, sequence (Q9GZZ6 whole entry): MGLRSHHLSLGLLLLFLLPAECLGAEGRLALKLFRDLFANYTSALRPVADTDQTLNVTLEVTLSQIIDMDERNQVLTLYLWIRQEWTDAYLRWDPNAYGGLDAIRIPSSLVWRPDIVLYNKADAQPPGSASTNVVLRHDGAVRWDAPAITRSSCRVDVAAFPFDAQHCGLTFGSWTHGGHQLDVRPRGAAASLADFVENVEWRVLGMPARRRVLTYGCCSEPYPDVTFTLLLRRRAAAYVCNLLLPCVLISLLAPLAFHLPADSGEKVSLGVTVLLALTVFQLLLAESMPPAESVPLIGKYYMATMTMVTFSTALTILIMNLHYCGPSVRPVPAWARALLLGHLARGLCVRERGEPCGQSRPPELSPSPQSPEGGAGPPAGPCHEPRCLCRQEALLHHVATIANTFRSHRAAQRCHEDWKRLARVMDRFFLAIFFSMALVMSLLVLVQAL

A word on the inhibition: it is the drop in the measured response relative to a control, in per cent. Usually IC50 stands for the concentration needed to halve the response being measured. Take `CC[C@H](C)[C@H](NC(=O)[C@H](CCCNC(=N)N)NC(=O)[C@H](CCCNC(=N)N)NC(=O)[C@H](Cc1ccc(O)cc1)NC(=O)[C@H](CCCNC(=N)N)NC(=O)[C@H](CCCNC(=N)N)NC(=O)[C@H](CCCNC(=N)N)NC(=O)[C@H](CCCNC(=N)N)NC(=O)[C@H](CC(=O)O)NC(=O)[C@H](Cc1ccc(O)cc1)NC(=O)[C@@H]1CCCN1C(=O)[C@H](CO)NC(=O)[C@H](CCCNC(=N)N)NC(=O)[C@H](Cc1ccc(O)cc1)NC(=O)[C@H](CCCNC(=N)N)NC(=O)CN)C(=O)N[C@H](C(=O)N[C@@H](CC(=O)O)C(N)=O)[C@@H](C)O`: the inhibition entry in data set [1], in [5], in data set [10], in data set [11] and in [14] was “inactive” each time. In addition, the figures for the IC50 in [2] and in [8] were 25.7 nM and 8.8 nM, respectively. Also, the result with Rattus norvegicus [3] and in the data set with Rattus norvegicus [6] was Active. Further, the inhibition in data set [4] turned out to be 25%; in [9], 20%; in data set [15], 50%; in data set [16] it was 53.6%. The Activity entry in data set [7] is given as “Non-Toxic”. Also, the inhibition result in data set [12] and in [13] was “Active” throughout.
